Data: patent US11986471B2, “Compounds and methods of use” (Tango Therapeutics, Inc., priority 2018, dated 2024)

Columns and labels:
PRMT5 [1] = molecular target: T1, PRMT5 (Homo sapiens, UniProt O14744); experiment: PRMT5 IC50 assay in the presence of SAM as cofactor; type: biochemical
T1 construct: purchased Viva (custom protein)
Outline: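 Three cofactor conditions tested for PRMT5 inhibition: none, MTA and SAM, each giving an IC50. For conversion to Ki, the MTA-condition IC50 is divided by 13.5 and the SAM-condition IC50 by 1.5, and the two Ki values are expressed as a SAM/MTA ratio.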

PRMT5 [2] = molecular target: T1, PRMT5; experiment: PRMT5 IC50 assay with no cofactor; type: biochemical
Outline: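 Potency against PRMT5 is compared across cofactor states, where IC50 equals Ki×1.5 with SAM present and Ki×13.5 with MTA present.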

PRMT5 [3] = molecular target: T1, PRMT5; experiment: PRMT5 IC50 assay in the presence of MTA as cofactor; type: biochemical; details: for IC50: PRMT5, MTA as cofactor
Outline: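 For the SAM-containing format, dividing IC50 by 1.5 yields Ki; for the MTA-containing format the divisor is 13.5. A third format without cofactor gives IC50 alone.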

HAP1 MTAP-intact = experiment: SDMA in-cell western assay, HAP1 MTAP-intact cell line; type: cell-based; details: Homo sapiens
Outline: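 Potency reflects cellular SDMA reduction, detected by in-cell western, in HAP1 cells with or without MTAP (endogenous expression versus null).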

HAP1 MTAP-deleted = experiment: SDMA in-cell western assay, HAP1 MTAP-deleted cell line; type: cell-based; details: for IC50: Homo sapiens, HAP1 MTAP-deleted cell line; for MTAP Intact/Deleted Ratio: IC50 ratio HAP1 MTAP-intact / HAP1 MTAP-deleted
Outline: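 These are IC50 values from an in-cell western measuring SDMA. The HAP1 cells used carry no MTAP, in contrast to the isogenic partner line with endogenous MTAP expression.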

[4] = ratio between the Ki in the presence of SAM and the Ki in the presence of MTA
[5] = ratio between Ki in the presence of SAM and Ki in the presence of MTA

T1 sequence (O14744 whole entry): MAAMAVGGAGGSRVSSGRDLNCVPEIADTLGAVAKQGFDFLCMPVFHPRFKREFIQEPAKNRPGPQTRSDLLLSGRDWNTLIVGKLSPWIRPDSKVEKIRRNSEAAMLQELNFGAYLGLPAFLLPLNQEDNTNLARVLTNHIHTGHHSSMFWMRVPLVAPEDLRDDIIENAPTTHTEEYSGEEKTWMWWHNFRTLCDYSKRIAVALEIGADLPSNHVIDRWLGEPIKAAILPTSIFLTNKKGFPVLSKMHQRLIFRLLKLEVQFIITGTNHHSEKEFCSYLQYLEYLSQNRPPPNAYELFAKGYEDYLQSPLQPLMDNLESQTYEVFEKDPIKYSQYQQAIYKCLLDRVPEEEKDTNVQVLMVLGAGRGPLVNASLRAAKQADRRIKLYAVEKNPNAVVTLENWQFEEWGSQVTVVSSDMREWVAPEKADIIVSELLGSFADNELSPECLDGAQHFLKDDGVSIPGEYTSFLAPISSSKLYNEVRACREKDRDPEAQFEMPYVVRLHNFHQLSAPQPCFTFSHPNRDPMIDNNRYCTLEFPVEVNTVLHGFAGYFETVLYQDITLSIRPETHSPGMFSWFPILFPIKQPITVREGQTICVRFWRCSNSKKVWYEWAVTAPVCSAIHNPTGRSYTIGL
T1 sequence (Q9BQA1 whole entry partner): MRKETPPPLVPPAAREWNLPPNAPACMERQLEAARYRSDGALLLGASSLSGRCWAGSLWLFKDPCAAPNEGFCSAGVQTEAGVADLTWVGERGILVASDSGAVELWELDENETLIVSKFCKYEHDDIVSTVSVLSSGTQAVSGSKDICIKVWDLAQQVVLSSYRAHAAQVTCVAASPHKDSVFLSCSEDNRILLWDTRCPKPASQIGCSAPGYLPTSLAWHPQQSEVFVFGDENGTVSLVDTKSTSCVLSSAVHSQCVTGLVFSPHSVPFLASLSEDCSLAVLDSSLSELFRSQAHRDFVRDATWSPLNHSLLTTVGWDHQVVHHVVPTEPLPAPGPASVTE

Cc1c(OCc2cnco2)ccc2c1CCN(C[C@@H](O)CNC(=O)c1ccnc(NC3CN(C(=O)C4CCC4)C3)c1)C2 [Compound 586, (S)-2-((1-(cyclobutanecarbonyl)azetidin-3-yl)amino)-N-(2-hydroxy-3-(5-methyl-6-(oxazol-5-ylmethoxy)-3N-dihydroisoquinolin-2(1H)-yl)propyl)isonicotinamide]
IC50 (PRMT5 [1]): 50 to 500 nM | IC50 (PRMT5 [2]): 500 to 5000 nM | IC50 (PRMT5 [3]): 50 to 500 nM | SAM/MTA Ratio (PRMT5 [3]; [4]): A (a Ki ratio greater than or equal to 10 fold between the Ki in the presence of SAM and the Ki in the presence of MTA) | IC50 (HAP1 MTAP-intact): ≥ 10000 nM | IC50 (HAP1 MTAP-deleted): 1000 to 10000 nM | MTAP Intact/Deleted Ratio (HAP1 MTAP-deleted): B* (an IC50 ratio greater than or equal to 3 fold but lower than 10 fold between the IC50 in the HAP1 MTAP-intact cell line and the HAP1 MTAP-deleted cell line)

O=C(NC[C@H](O)CN1CCc2c(ccc(OCc3cnco3)c2Cl)C1)c1ccnc(NC2CCCC(F)(F)C2)c1 (stereo partly drawn) [Compound 347]
IC50 (PRMT5 [1]): 50 to 500 nM | IC50 (PRMT5 [2]; read-out: No Co-factor IC50): ≥ 5000 nM | IC50 (PRMT5 [3]): 50 to 500 nM | SAM/MTA Ratio (PRMT5 [3]; [5]): A (a Ki ratio greater than or equal to 10 fold between the Ki in the presence of SAM and the Ki in the presence of MTA) | IC50 (HAP1 MTAP-intact): ≥ 10000 nM | IC50 (HAP1 MTAP-deleted): ≥ 10000 nM | MTAP Intact/Deleted Ratio (HAP1 MTAP-deleted): C* (an IC50 ratio of less than 3 fold between the IC50 in the HAP1 MTAP-intact cell line and the HAP1 MTAP-deleted cell line)

Cc1ncoc1COc1ccc2c(c1C)CCN(C[C@@H](O)CNC(=O)c1cc(NC3CCC3)ncn1)C2 [Compound 371, 6-(cyclobutylamino)-N-[(2S)-2-hydroxy-3-{5-methyl-6-[(4-methyl-1,3-oxazol-5-yl)methoxy]-1,2,3,4-tetrahydroisoquinolin-2-yl}propyl]pyrimidine-4-carboxamide]
IC50 (PRMT5 [1]): 500 to 5000 nM | IC50 (PRMT5 [2]; read-out: No Co-factor IC50): ≥ 5000 nM | IC50 (PRMT5 [3]): 50 to 500 nM | SAM/MTA Ratio (PRMT5 [3]; [5]): A (a Ki ratio greater than or equal to 10 fold between the Ki in the presence of SAM and the Ki in the presence of MTA) | IC50 (HAP1 MTAP-intact): ≥ 10000 nM | IC50 (HAP1 MTAP-deleted): < 1000 nM | MTAP Intact/Deleted Ratio (HAP1 MTAP-deleted): A* (an IC50 ratio greater than or equal to 10 fold between the IC50 in the HAP1 MTAP-intact cell line and the HAP1 MTAP-deleted cell line)

CC(=O)N1CCC(Nc2cc(C(=O)NC[C@H](O)CN3CCc4nc(OCc5cnco5)ccc4C3)ncn2)CC1 [Compound 412, 6-[(1-acetyl-4-piperidyl)amino]-N-[(2S)-2-hydroxy-3-[2-(oxazol-5-ylmethoxy)-7,8-dihydro-5H-1,6-naphthyridin-6-yl]propyl]pyrimidine-4-carboxamide]
IC50 (PRMT5 [1]): 500 to 5000 nM | IC50 (PRMT5 [2]; read-out: No Co-factor IC50): ≥ 5000 nM | IC50 (PRMT5 [3]): 50 to 500 nM | SAM/MTA Ratio (PRMT5 [3]; [5]): A (a Ki ratio greater than or equal to 10 fold between the Ki in the presence of SAM and the Ki in the presence of MTA) | IC50 (HAP1 MTAP-intact): ≥ 10000 nM | IC50 (HAP1 MTAP-deleted): ≥ 10000 nM | MTAP Intact/Deleted Ratio (HAP1 MTAP-deleted): C* (an IC50 ratio of less than 3 fold between the IC50 in the HAP1 MTAP-intact cell line and the HAP1 MTAP-deleted cell line)

Cc1c(OCc2cnco2)ccc2c1CCN(C[C@@H](O)CNC(=O)c1ccnc(NC3CCN(C(=O)C4CC4)CC3)c1)C2 [Compound 484, (S)-2-((1-(cyclopropanecarbonyl)piperidin-4-yl)amino)-N-(2-hydroxy-3-(5-methyl-6-(oxazol-5-ylmethoxy)-3N-dihydroisoquinolin-2(1H)-yl)propyl)isonicotinamide]
IC50 (PRMT5 [1]): 50 to 500 nM | IC50 (PRMT5 [2]): 500 to 5000 nM | IC50 (PRMT5 [3]): 50 to 500 nM | SAM/MTA Ratio (PRMT5 [3]; [4]): A (a Ki ratio greater than or equal to 10 fold between the Ki in the presence of SAM and the Ki in the presence of MTA) | IC50 (HAP1 MTAP-intact): ≥ 10000 nM | IC50 (HAP1 MTAP-deleted): 1000 to 10000 nM | MTAP Intact/Deleted Ratio (HAP1 MTAP-deleted): B* (an IC50 ratio greater than or equal to 3 fold but lower than 10 fold between the IC50 in the HAP1 MTAP-intact cell line and the HAP1 MTAP-deleted cell line)

Cc1ncoc1COc1ccc2c(c1)CCN(C[C@@H](O)CNC(=O)c1ccc(OC3CCN(Cc4ccncc4)CC3)cc1)C2 [Compound 416, N-[(2S)-2-hydroxy-3-{6-[(4-methyl-1,3-oxazol-5-yl)methoxy]-1,2,3,4-tetrahydroisoquinolin-2-yl}propyl]-4-{[1-[(pyridin-4-yl)methyl]piperidin-4-yl}oxy)benzamide]
IC50 (PRMT5 [1]): 50 to 500 nM | IC50 (PRMT5 [2]; read-out: No Co-factor IC50): 500 to 5000 nM | IC50 (PRMT5 [3]): 50 to 500 nM | SAM/MTA Ratio (PRMT5 [3]; [5]): A (a Ki ratio greater than or equal to 10 fold between the Ki in the presence of SAM and the Ki in the presence of MTA) | IC50 (HAP1 MTAP-intact): < 1000 nM | IC50 (HAP1 MTAP-deleted): < 1000 nM | MTAP Intact/Deleted Ratio (HAP1 MTAP-deleted): C* (an IC50 ratio of less than 3 fold between the IC50 in the HAP1 MTAP-intact cell line and the HAP1 MTAP-deleted cell line)

O=C(NC[C@H](O)CN1CCc2cc(OCc3cnco3)c(Cl)cc2C1)c1ccnc(NC2CCC2)c1 [Compound 281, N-[(2S)-3-[7-chloro-6-(oxazol-5-ylmethoxy)-3,4-dihydro-1H-isoquinolin-2-yl]-2-hydroxy-propyl]-2-(cyclobutylamino)pyridine-4-carboxamide]
IC50 (PRMT5 [1]): 500 to 5000 nM | IC50 (PRMT5 [2]; read-out: No Co-factor IC50): ≥ 5000 nM | IC50 (PRMT5 [3]): 50 to 500 nM | SAM/MTA Ratio (PRMT5 [3]; [5]): A (a Ki ratio greater than or equal to 10 fold between the Ki in the presence of SAM and the Ki in the presence of MTA) | IC50 (HAP1 MTAP-intact): ≥ 10000 nM | IC50 (HAP1 MTAP-deleted): 1000 to 10000 nM | MTAP Intact/Deleted Ratio (HAP1 MTAP-deleted): C* (an IC50 ratio of less than 3 fold between the IC50 in the HAP1 MTAP-intact cell line and the HAP1 MTAP-deleted cell line)

CC(=O)N1CCC(Nc2cc(C(=O)NC[C@H](O)CN3CCc4cc(OCc5ocnc5C)ccc4C3)cc(N(C)C3CCC3)n2)CC1 [Compound 628, (S)-2-((1-acetylpiperidin-4-yl)amino)-6-(cyclobutyl(methyl)amino)-N-(2-hydroxy-3-(6-((4-methyloxazol-5-yl)methoxy)-3,4-dihydroisoquinolin-2(1H)-yl)propyl)isonicotinamide]
IC50 (PRMT5 [1]): 50 to 500 nM | IC50 (PRMT5 [2]; read-out: No Co-factor IC50): 500 to 5000 nM | IC50 (PRMT5 [3]): < 50 nM | SAM/MTA Ratio (PRMT5 [3]; [5]): A (a Ki ratio greater than or equal to 10 fold between the Ki in the presence of SAM and the Ki in the presence of MTA) | IC50 (HAP1 MTAP-intact): 1000 to 10000 nM | IC50 (HAP1 MTAP-deleted): < 1000 nM | MTAP Intact/Deleted Ratio (HAP1 MTAP-deleted): B* (an IC50 ratio greater than or equal to 3 fold but lower than 10 fold between the IC50 in the HAP1 MTAP-intact cell line and the HAP1 MTAP-deleted cell line)

CC(C)(C)N1CCN(c2nc(NC3COC3)cc(C(=O)NC[C@H](O)CN3CCc4c(ccc(OCc5cnco5)c4Cl)C3)n2)CC1 [Compound 370, (S)-2-(4-(tert-butyl)piperazin-1-yl)-N-(3-(5-chloro-6-(oxazol-5-ylmethoxy)-3N-dihydroisoquinolin-2(1H)-yl)-2-hydroxypropyl)-6-(oxetan-3-ylamino)pyrimidine-4-carboxamide]
IC50 (PRMT5 [1]): 50 to 500 nM | IC50 (PRMT5 [2]; read-out: No Co-factor IC50): ≥ 5000 nM | IC50 (PRMT5 [3]): 50 to 500 nM | SAM/MTA Ratio (PRMT5 [3]; [5]): A (a Ki ratio greater than or equal to 10 fold between the Ki in the presence of SAM and the Ki in the presence of MTA) | IC50 (HAP1 MTAP-intact): ≥ 10000 nM | IC50 (HAP1 MTAP-deleted): 1000 to 10000 nM | MTAP Intact/Deleted Ratio (HAP1 MTAP-deleted): C* (an IC50 ratio of less than 3 fold between the IC50 in the HAP1 MTAP-intact cell line and the HAP1 MTAP-deleted cell line)
